Columns and labels:
umbrella sedge = assay: Test B flooded paddy test; assay type: in vivo, Cyperus difformis; details: Flood, 250 g ai/ha, 13 to 15 days; scale 0 to 100, 0 no effect, 100 complete control
Description: (§1) At time of treatment, test pots were flooded to 3 cm above the soil surface, treated by application of test compounds directly to the paddy water, and then maintained at that water depth for the duration of the test. Treated plants and controls were maintained in a greenhouse for 13 to 15 days, after which time all species were compared to controls and visually evaluated. […] A dash (-) response means no test result.

duck salad = assay: Test B flooded paddy test; assay type: in vivo, Heteranthera limosa; details: Flood, 250 g ai/ha, 13 to 15 days; scale 0 to 100, 0 no effect, 100 complete control
Description: as §1

rice = assay: Test B flooded paddy test; assay type: in vivo, Oryza sativa; details: Flood, 250 g ai/ha, 13 to 15 days; scale 0 to 100, 0 no effect, 100 complete control
Description: as §1

barnyardgrass [1] = assay: Test B flooded paddy test; assay type: in vivo, Echinochloa crus-galli; details: Flood, 250 g ai/ha, 13 to 15 days; scale 0 to 100, 0 no effect, 100 complete control
Description: as §1

annual bluegrass = assay: Test D preemergence test; assay type: in vivo, Poa annua; details: scale 0 to 100
Description: (§2) Seeds of plant species selected from annual bluegrass (Poa annua), blackgrass (Alopecurus myosuroides), downy bromegrass (Bromus tectorum), field violet (Viola arvensis), green foxtail (Setaria viridis), Italian ryegrass (Lolium multiflorum), littleseed canarygrass (Phalaris minor), spring wheat (Triticum aestivum), wild oat (Avena fatua), […]), winter barley (Hordeum vulgare), and winter wheat (Triticum aestivum) were planted and treated preemergence with test chemicals formulated in a non-phytotoxic solvent mixture which included a surfactant. […] A dash (-) response means no test result.

soybean = assay: Test G preemergence test; assay type: in vivo, Glycine max; details: scale 0 to 100
corn = assay: Test G preemergence test; assay type: in vivo, Zea mays; details: scale 0 to 100
giant foxtail = assay: Test G preemergence test; assay type: in vivo, Setaria faberii; details: scale 0 to 100
millet = assay: Test G preemergence test; assay type: in vivo, Panicum miliaceum; details: scale 0 to 100
tall waterhemp = assay: Test G preemergence test; assay type: in vivo, Amaranthus tuberculatos; details: scale 0 to 100
large crabgrass = assay: Test G preemergence test; assay type: in vivo, Digitaria sanguinalis; details: scale 0 to 100
green foxtail = assay: Test D preemergence test; assay type: in vivo, Setaria viridis; details: scale 0 to 100
Description: as §2

eastern black nightshade = assay: Test G preemergence test; assay type: in vivo, Solanum ptycanthum; details: scale 0 to 100
broadleaf signalgrass = assay: Test G preemergence test; assay type: in vivo, Brachiaria platyphylla; details: scale 0 to 100
barnyardgrass [2] = assay: Test G preemergence test; assay type: in vivo, Echinochloa crus-galli; details: scale 0 to 100
wild oat = assay: Test D preemergence test; assay type: in vivo, Avena fatua; details: scale 0 to 100
Description: as §2

winter barley = assay: Test D preemergence test; assay type: in vivo, Hordeum vulgare
Description: as §2

field violet = assay: Test D preemergence test; assay type: in vivo, Viola arvensis; details: scale 0 to 100
Description: as §2

lambsquarters = assay: Test G preemergence test; assay type: in vivo, Chenopodium album; details: scale 0 to 100
littleseed canarygrass = assay: Test D preemergence test; assay type: in vivo, Phalaris minor; details: scale 0 to 100
Description: as §2

woolly cupgrass = assay: Test G preemergence test; assay type: in vivo, Eriochloa villosa; details: scale 0 to 100
millet foxtail = assay: Test G preemergence test; assay type: in vivo, Setaria italica; details: scale 0 to 100
windgrass = assay: Test D preemergence test; assay type: in vivo, Apera spica-venti; details: scale 0 to 100
Description: as §2

winter wheat = assay: Test D preemergence test; assay type: in vivo, Triticum aestivum; details: scale 0 to 100
Description: as §2

field sandbur = assay: Test G preemergence test; assay type: in vivo, Cenchrus incertus; details: scale 0 to 100
goosegrass = assay: Test G preemergence test; assay type: in vivo, Eleusine indica; details: scale 0 to 100

`CC(c1c(C(F)(F)F)nn(C)c1OC(F)F)S(=O)(=O)c1cccc[n+]1[O-]` (stereo not drawn) [Compound 5] was tested, and the “Plant response rating, Umbrella Sedge” value (umbrella sedge) was 100, the “Plant response rating, Ducksalad” value (duck salad) was 90 and the “Plant response rating, Rice, Transplanted” value (rice) was 70. For the same compound, the “Plant response rating, Barnyardgrass” value (barnyardgrass [1]) was 80.
For `Cn1nc(C(F)(F)F)c(C[S+]([O-])c2ccc(Cl)c[n+]2[O-])c1OC(F)F` (stereo not drawn) [Compound 6], the “Plant response rating, Umbrella Sedge” value (umbrella sedge) was 100, the “Plant response rating, Ducksalad” value (duck salad) was 100 and the “Plant response rating, Rice, Transplanted” value (rice) was 60. The “Plant response rating, Barnyardgrass” value (barnyardgrass [1]) was 80.
In the case of `Cn1nc(C(F)(F)F)c(C(Cl)S(=O)(=O)c2cccc[n+]2[O-])c1Cl` (stereo not drawn) [Compound 12], the “Plant response rating, Bluegrass” value (annual bluegrass; 31 g ai/ha) is reported as 60, the “Plant response rating, Bluegrass” value (annual bluegrass; 62 g ai/ha) is reported as 100 and the “Plant response rating, Bluegrass” value (annual bluegrass; 125 g ai/ha) is reported as 100. The “Plant response rating, Bluegrass” value (annual bluegrass; 250 g ai/ha) was 100, the “Plant response rating, Soybean” value (soybean; 31 g ai/ha) was 0 and the “Plant response rating, Soybean” value (soybean; 62 g ai/ha) was 0. For the same compound, the “Plant response rating, Soybean” value (soybean; 125 g ai/ha) was 0, the “Plant response rating, Soybean” value (soybean; 250 g ai/ha) was 0 and the “Plant response rating, Corn” value (corn; 31 g ai/ha) was 0. For the same compound, the “Plant response rating, Corn” value (corn; 62 g ai/ha) was 0, the “Plant response rating, Corn” value (corn; 125 g ai/ha) was 0 and the “Plant response rating, Corn” value (corn; 250 g ai/ha) was 0. The “Plant response rating, Foxtail, Giant” value (giant foxtail; 31 g ai/ha) was 45, the “Plant response rating, Foxtail, Giant” value (giant foxtail; 62 g ai/ha) was 75 and the “Plant response rating, Foxtail, Giant” value (giant foxtail; 125 g ai/ha) was 100. The “Plant response rating, Foxtail, Giant” value (giant foxtail; 250 g ai/ha) was 100, the “Plant response rating, Millet” value (millet; 31 g ai/ha) was 50 and the “Plant response rating, Millet” value (millet; 62 g ai/ha) was 50. The “Plant response rating, Millet” value (millet; 125 g ai/ha) was 100, the “Plant response rating, Millet” value (millet; 250 g ai/ha) was 100 and the “Plant response rating, Waterhemp” value (tall waterhemp; 31 g ai/ha) was 0. For the same compound, the “Plant response rating, Waterhemp” value (tall waterhemp; 62 g ai/ha) was 40, the “Plant response rating, Waterhemp” value (tall waterhemp; 125 g ai/ha) was 95 and the “Plant response rating, Waterhemp” value (tall waterhemp; 250 g ai/ha) was 100. The “Plant response rating, Crabgrass, Large” value (large crabgrass; 31 g ai/ha) was 15, the “Plant response rating, Crabgrass, Large” value (large crabgrass; 62 g ai/ha) was 60 and the “Plant response rating, Crabgrass, Large” value (large crabgrass; 125 g ai/ha) was 95. For the same compound, the “Plant response rating, Crabgrass, Large” value (large crabgrass; 250 g ai/ha) was 100, the “Plant response rating, Foxtail, Green” value (green foxtail; 31 g ai/ha) was 55 and the “Plant response rating, Foxtail, Green” value (green foxtail; 62 g ai/ha) was 60. The “Plant response rating, Foxtail, Green” value (green foxtail; 125 g ai/ha) was 65, the “Plant response rating, Foxtail, Green” value (green foxtail; 250 g ai/ha) was 100 and the “Plant response rating, Nightshade” value (eastern black nightshade; 31 g ai/ha) was 0. For the same compound, the “Plant response rating, Nightshade” value (eastern black nightshade; 62 g ai/ha) was 0, the “Plant response rating, Nightshade” value (eastern black nightshade; 125 g ai/ha) was 0 and the “Plant response rating, Nightshade” value (eastern black nightshade; 250 g ai/ha) was 70. The “Plant response rating, Signalgrass” value (broadleaf signalgrass; 31 g ai/ha) was 0, the “Plant response rating, Signalgrass” value (broadleaf signalgrass; 62 g ai/ha) was 0 and the “Plant response rating, Signalgrass” value (broadleaf signalgrass; 125 g ai/ha) was 75. For the same compound, the “Plant response rating, Signalgrass” value (broadleaf signalgrass; 250 g ai/ha) was 75, the “Plant response rating, Barnyardgrass” value (barnyardgrass [2]; 31 g ai/ha) was 65 and the “Plant response rating, Barnyardgrass” value (barnyardgrass [2]; 62 g ai/ha) was 95. For the same compound, the “Plant response rating, Barnyardgrass” value (barnyardgrass [2]; 125 g ai/ha) was 100, the “Plant response rating, Barnyardgrass” value (barnyardgrass [2]; 250 g ai/ha) was 100 and the “Plant response rating, Oat, Wild” value (wild oat; 31 g ai/ha) was 0. For the same compound, the “Plant response rating, Oat, Wild” value (wild oat; 62 g ai/ha) was 0, the “Plant response rating, Oat, Wild” value (wild oat; 125 g ai/ha) was 0 and the “Plant response rating, Oat, Wild” value (wild oat; 250 g ai/ha) was 0. For the same compound, the “Plant response rating, Barley” value (winter barley; Preemergence, 62 g ai/ha, scale 0 to 100) was 0, the “Plant response rating, Barley” value (winter barley; Preemergence, 125 g ai/ha, scale 0 to 100) was 0 and the “Plant response rating, Barley” value (winter barley; Preemergence, 31 g ai/ha, scale 0 to 100) was 0. For the same compound, the “Plant response rating, Barley” value (winter barley; preemergence, 250 g ai/ha, scale 0 (no effect) to 100 (complete control)) was 0, the “Plant response rating, Field Violet” value (field violet; 31 g ai/ha) was 0 and the “Plant response rating, Field Violet” value (field violet; 62 g ai/ha) was 0. For the same compound, the “Plant response rating, Field Violet” value (field violet; 125 g ai/ha) was 0, the “Plant response rating, Field Violet” value (field violet; 250 g ai/ha) was 40 and the “Plant response rating, Lambsquarters” value (lambsquarters; 31 g ai/ha) was 0. For the same compound, the “Plant response rating, Lambsquarters” value (lambsquarters; 62 g ai/ha) was 0, the “Plant response rating, Lambsquarters” value (lambsquarters; 125 g ai/ha) was 0 and the “Plant response rating, Lambsquarters” value (lambsquarters; 250 g ai/ha) was 15. The “Plant response rating, Canarygrass” value (littleseed canarygrass; 31 g ai/ha) was 0, the “Plant response rating, Canarygrass” value (littleseed canarygrass; 62 g ai/ha) was 0 and the “Plant response rating, Canarygrass” value (littleseed canarygrass; 125 g ai/ha) was 75. The “Plant response rating, Canarygrass” value (littleseed canarygrass; 250 g ai/ha) was 100, the “Plant response rating, Cupgrass, Woolly” value (woolly cupgrass; 31 g ai/ha) was 0 and the “Plant response rating, Cupgrass, Woolly” value (woolly cupgrass; 62 g ai/ha) was 0. The “Plant response rating, Cupgrass, Woolly” value (woolly cupgrass; 125 g ai/ha) was 65, the “Plant response rating, Cupgrass, Woolly” value (woolly cupgrass; 250 g ai/ha) was 70 and the “Plant response rating, Foxtail, Millet” value (millet foxtail; 31 g ai/ha) was 45. The “Plant response rating, Foxtail, Millet” value (millet foxtail; 62 g ai/ha) was 75, the “Plant response rating, Foxtail, Millet” value (millet foxtail; 125 g ai/ha) was 100 and the “Plant response rating, Foxtail, Millet” value (millet foxtail; 250 g ai/ha) was 100. For the same compound, the “Plant response rating, Windgrass” value (windgrass; 31 g ai/ha) was 100, the “Plant response rating, Windgrass” value (windgrass; 62 g ai/ha) was 100 and the “Plant response rating, Windgrass” value (windgrass; 125 g ai/ha) was 100. For the same compound, the “Plant response rating, Windgrass” value (windgrass; 250 g ai/ha) was 100, the “Plant response rating, Wheat, Winter” value (winter wheat; 31 g ai/ha) was 0 and the “Plant response rating, Wheat, Winter” value (winter wheat; 62 g ai/ha) was 0. For the same compound, the “Plant response rating, Wheat, Winter” value (winter wheat; 125 g ai/ha) was 0, the “Plant response rating, Wheat, Winter” value (winter wheat; 250 g ai/ha) was 0 and the “Plant response rating, Sandbur” value (field sandbur; 31 g ai/ha) was 85. The “Plant response rating, Sandbur” value (field sandbur; 62 g ai/ha) was 85, the “Plant response rating, Sandbur” value (field sandbur; 125 g ai/ha) was 95 and the “Plant response rating, Sandbur” value (field sandbur; 250 g ai/ha) was 100. For the same compound, the “Plant response rating, Goosegrass” value (goosegrass; 31 g ai/ha) was 100, the “Plant response rating, Goosegrass” value (goosegrass; 62 g ai/ha) was 100 and the “Plant response rating, Goosegrass” value (goosegrass; 125 g ai/ha) was 100. The “Plant response rating, Goosegrass” value (goosegrass; 250 g ai/ha) was 100.
